Source: US11485742B2, “2-azaspiro[3.4]octane derivatives as M4 agonists” (NOVARTIS AG, priority 2019, dated 2022)

How the values were obtained:
[1] = molecular target: T1, human cloned CHRM4 receptor (Homo sapiens, UniProt P08173); assay: CHRM4 Ca++ Flux Assay (M4_CHO cells, agonist mode); format: cell-based; settings: for Emax: Percent Activity (PA), read-out: M4 FDSS PA %; for EC50: geometric mean if tested more than once, read-out: M4 FDSS EC50
T1 construct: expressed in transfected cells; host or cells: CHO-K1 (M4_CHO)
T1 sequence (P08173 1-479): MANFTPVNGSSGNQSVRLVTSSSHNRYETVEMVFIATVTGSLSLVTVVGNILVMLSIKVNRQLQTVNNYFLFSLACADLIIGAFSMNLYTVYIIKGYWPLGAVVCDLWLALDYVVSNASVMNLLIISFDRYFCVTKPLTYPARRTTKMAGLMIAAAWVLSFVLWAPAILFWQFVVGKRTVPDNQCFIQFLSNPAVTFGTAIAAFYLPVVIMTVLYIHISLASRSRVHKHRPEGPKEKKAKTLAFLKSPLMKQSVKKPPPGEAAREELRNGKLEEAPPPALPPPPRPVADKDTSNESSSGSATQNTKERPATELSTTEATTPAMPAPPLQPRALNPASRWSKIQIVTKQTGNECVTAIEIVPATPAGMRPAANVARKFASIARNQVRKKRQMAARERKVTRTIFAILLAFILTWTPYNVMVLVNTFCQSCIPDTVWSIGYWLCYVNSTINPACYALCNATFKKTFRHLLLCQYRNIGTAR
In short: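 Agonist-mode calcium flux in an M4-expressing CHO-K1 line: compounds were dosed at 11 points in triplicate and fluorescence was tracked for 3 min. Cells were preloaded with Ca++ dye and kept in −Ca/−Mg HBSS with 20 μM ATP for 60 min. Efficacy is scaled to carbachol EC100; EC50s come from four-parameter regression, geometric mean across runs.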

[2] = molecular target: T2, human cloned CHRM5 receptor (Homo sapiens, UniProt P08912); assay: CHRM5 Ca++ Flux Assay (M5_CHO cells, agonist mode); format: cell-based; settings: for Emax: Percent Activity (PA) measured to EC100 of Carbachol, read-out: M5 FDSS PA %; for EC50: agonist mode, geometric mean if tested more than once, read-out: M5 FDSS EC50
T2 construct: expressed in transfected cells; host or cells: CHO (M5_CHO)
T2 sequence (P08912 1-532): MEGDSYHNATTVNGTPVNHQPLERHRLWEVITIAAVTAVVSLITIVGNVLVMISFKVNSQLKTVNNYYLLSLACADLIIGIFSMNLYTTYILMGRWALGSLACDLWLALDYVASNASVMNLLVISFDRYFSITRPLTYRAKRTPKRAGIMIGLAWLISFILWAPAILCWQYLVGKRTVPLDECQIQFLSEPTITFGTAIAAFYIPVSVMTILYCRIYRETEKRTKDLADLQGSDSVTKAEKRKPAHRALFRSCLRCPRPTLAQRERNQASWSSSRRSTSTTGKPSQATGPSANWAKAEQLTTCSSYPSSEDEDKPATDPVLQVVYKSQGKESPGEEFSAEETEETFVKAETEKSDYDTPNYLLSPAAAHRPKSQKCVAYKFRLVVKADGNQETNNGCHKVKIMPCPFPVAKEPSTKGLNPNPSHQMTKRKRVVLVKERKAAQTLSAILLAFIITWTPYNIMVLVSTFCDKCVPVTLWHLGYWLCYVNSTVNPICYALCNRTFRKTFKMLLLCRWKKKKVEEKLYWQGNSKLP
In short: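 Agonist-mode calcium mobilisation: compounds, 11 concentrations in triplicate, applied to stable M3_CHO or M5_CHO cells loaded with Ca++ dye, fluorescence followed 3 min. Efficacy expressed against carbachol EC100; EC curves by four-parameter nonlinear regression, geometric mean across independent runs.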

Row | SMILES | Emax [1] [%] | EC50 [1] [nM] | Emax [2] [%] | EC50 [2] [nM]
1 | Cc1nnc(COc2ccc(F)cc2C2CCN([C@@H]3COC4(C3)CN(c3nnco3)C4)CC2)s1 [Example 2E, (S)-7-(4-(5-fluoro-2-((5-methyl-1,3,4-thiadiazol-2-yl)methoxy)phenyl)piperidin-1-yl)-2-(1,3,4-oxadiazol-2-yl)-5-oxa-2-azaspiro[3.4]octane] | 85 | 1 | 23 | 1670
2 | Cc1nnc(COc2ccc(F)cc2C2CCN([C@@H]3COC4(C3)CN(c3nnco3)C4)CC2)o1 [Example 2F, (S)-7-(4-(5-fluoro-2-((5-methyl-1,3,4-oxadiazol-2-yl)methoxy)phenyl)piperidin-1-yl)-2-(1,3,4-oxadiazol-2-yl)-5-oxa-2-azaspiro[3.4]octane] | 90 | 1 | 30 | 3650
3 | Cc1cc(COc2ccc(F)cc2C2CCN([C@@H]3COC4(C3)CN(c3nnco3)C4)CC2)on1 [Example 2G, (S)-7-(4-(5-fluoro-2-((3-methylisoxazol-5-yl)methoxy)phenyl)piperidin-1-yl)-2-(1,3,4-oxadiazol-2-yl)-5-oxa-2-azaspiro[3.4]octane] | 86 | 3 | 0 | > 25000
4 | Fc1ccc(OCC2COC2)c(C2CCN([C@@H]3COC4(C3)CN(c3nnco3)C4)CC2)c1 [Example 2H, (S)-7-(4-(5-fluoro-2-(oxetan-3-ylmethoxy)phenyl)piperidin-1-yl)-2-(1,3,4-oxadiazol-2-yl)-5-oxa-2-azaspiro[3.4]octane] | 88 | 6 | 0 | > 25000
5 | Fc1ccc(OCc2ncccn2)c(C2CCN([C@@H]3COC4(C3)CN(c3nnco3)C4)CC2)c1 [Example 2I, (S)-7-(4-(5-fluoro-2-(pyrimidin-2-ylmethoxy)phenyl)piperidin-1-yl)-2-(1,3,4-oxadiazol-2-yl)-5-oxa-2-azaspiro[3.4]octane] | 77 | 12 | 0 | > 25000
6 | Fc1ccc(OCC2(F)COC2)c(C2CCN([C@@H]3COC4(C3)CN(c3nnco3)C4)CC2)c1 [Example 2J, (S)-7-(4-(5-fluoro-2-((3-fluorooxetan-3-yl)methoxy)phenyl)piperidin-1-yl)-2-(1,3,4-oxadiazol-2-yl)-5-oxa-2-azaspiro[3.4]octane] | 90 | 12 | 0 | > 25000
7 | CC1(COc2ccc(F)cc2C2CCN([C@@H]3COC4(C3)CN(c3nnco3)C4)CC2)COC1 [Example 2K, (S)-7-(4-(5-fluoro-2-((3-methyloxetan-3-yl)methoxy)phenyl)piperidin-1-yl)-2-(1,3,4-oxadiazol-2-yl)-5-oxa-2-azaspiro[3.4]octane] | 82 | 18 | 0 | > 25000
8 | Fc1ccc(OC2CC3(COC3)C2)c(C2CCN([C@@H]3COC4(C3)CN(c3nnco3)C4)CC2)c1 [Example 2L, (S)-7-(4-(2-((2-oxaspiro[3.3]heptan-6-yl)oxy)-5-fluorophenyl)piperidin-1-yl)-2-(1,3,4-oxadiazol-2-yl)-5-oxa-2-azaspiro[3.4]octane] | 81 | 50 | 0 | > 25000
9 | Fc1ccc(OC[C@H]2CCCO2)c(C2CCN([C@@H]3COC4(C3)CN(c3nnco3)C4)CC2)c1 [Example 2M, (S)-7-(4-(5-fluoro-2-(((R)-tetrahydrofuran-2-yl)methoxy)phenyl)piperidin-1-yl)-2-(1,3,4-oxadiazol-2-yl)-5-oxa-2-azaspiro[3.4]octane] | 58 | 145 | 0 | > 25000
10 | CCC1(COc2ccc(F)cc2C2CCN([C@@H]3COC4(C3)CN(c3nnco3)C4)CC2)COC1 [Example 2P, (S)-7-(4-(2-((3-ethyloxetan-3-yl)methoxy)-5-fluorophenyl)piperidin-1-yl)-2-(1,3,4-oxadiazol-2-yl)-5-oxa-2-azaspiro[3.4]octane] | 75 | 85 | 0 | > 25000
11 | Fc1ccc(OCC2CC3(COC3)C2)c(C2CCN([C@@H]3COC4(C3)CN(c3nnco3)C4)CC2)c1 [Example 2S, (S)-7-(4-(2-((2-oxaspiro[3.3]heptan-6-yl)methoxy)-5-fluorophenyl)piperidin-1-yl)-2-(1,3,4-oxadiazol-2-yl)-5-oxa-2-azaspiro[3.4]octane] | 68 | 242 | 0 | > 25000
12 | CCc1nnc(COc2ccc(F)cc2C2CCN([C@@H]3COC4(C3)CN(c3nnco3)C4)CC2)s1 [Example 2T, (S)-7-(4-(2-((5-ethyl-1,3,4-thiadiazol-2-yl)methoxy)-5-fluorophenyl)piperidin-1-yl)-2-(1,3,4-oxadiazol-2-yl)-5-oxa-2-azaspiro[3.4]octane] | 89 | 2 | 0 | 730
13 | OC1(COc2ccc(F)cc2C2CCN([C@@H]3COC4(C3)CN(c3nnco3)C4)CC2)COC1 [Example 2U, (S)-3-((2-(1-(2-(1,3,4-oxadiazol-2-yl)-5-oxa-2-azaspiro[3.4]octan-7-yl)piperidin-4-yl)-4-fluorophenoxy)methyl)oxetan-3-ol] | 86 | 12 | 0 | > 25000

Further lines, results first:

Row | Emax [1] [%] | EC50 [1] [nM] | Emax [2] [%] | EC50 [2] [nM] | SMILES
14 | 40 | 250 | 0 | > 25000 | CC(C)(O)CCOc1cc(F)ccc1C1CCN([C@@H]2COC3(C2)CN(c2nncs2)C3)CC1 [Example 5V, (S)-4-(2-(1-(2-(1,3,4-thiadiazol-2-yl)-5-oxa-2-azaspiro[3.4]octan-7-yl)piperidin-4-yl)-5-fluorophenoxy)-2-methylbutan-2-ol]
15 | 85 | 104 | 0 | > 25000 | Fc1ccc(OC2CC3(COC3)C2)c(C2CCN([C@@H]3COC4(C3)CN(c3nncs3)C4)CC2)c1 [Example 5W, (S)-7-(4-(2-((2-oxaspiro[3.3]heptan-6-yl)oxy)-5-fluorophenyl)piperidin-1-yl)-2-(1,3,4-thiadiazol-2-yl)-5-oxa-2-azaspiro[3.4]octane]
16 | 71 | 58 | 0 | > 25000 | Fc1ccc(OC[C@H]2CCOC2)c(C2CCN([C@@H]3COC4(C3)CN(c3nncs3)C4)CC2)c1 [Example 5X, (S)-7-(4-(5-fluoro-2-(((S)-tetrahydrofuran-3-yl)methoxy)phenyl)piperidin-1-yl)-2-(1,3,4-thiadiazol-2-yl)-5-oxa-2-azaspiro[3.4]octane]
17 | 64 | 109 | 0 | > 25000 | CC(C)(O)COc1ccccc1C1CCN([C@@H]2COC3(C2)CN(c2ncns2)C3)CC1 [Example 5Y, (S)-1-(2-(1-(2-(1,2,4-thiadiazol-5-yl)-5-oxa-2-azaspiro[3.4]octan-7-yl)piperidin-4-yl)phenoxy)-2-methylpropan-2-ol]
18 | 74 | 12 | 0 | > 25000 | Fc1ccc(OC2CCOCC2)c(C2CCN([C@@H]3COC4(C3)CN(c3ncon3)C4)CC2)c1 [Example 6A, (S)-7-(4-(5-fluoro-2-((tetrahydro-2H-pyran-4-yl)oxy)phenyl)piperidin-1-yl)-2-(1,2,4-oxadiazol-3-yl)-5-oxa-2-azaspiro[3.4]octane]
19 | 79 | 8 | 0 | > 25000 | Fc1ccc(OC2COC2)c(C2CCN([C@@H]3COC4(C3)CN(c3ncon3)C4)CC2)c1 [Example 6B, (S)-7-(4-(5-fluoro-2-(oxetan-3-yloxy)phenyl)piperidin-1-yl)-2-(1,2,4-oxadiazol-3-yl)-5-oxa-2-azaspiro[3.4]octane]
